Experimental data reported in patent publication US5250283A, “Organic contrast agent analog and method of making same” (priority 1992, dated 1993).
Where a name gives a salt, the structure may show the parent alone.

Experiment: Thin layer chromatography of bile (metabolism) in rats
Format: in vivo
Conditions: rat bile, i.v.
Procedure: Lesser concentrations were found in the other tissues. Excretion of the two compounds were found only in bile with no compound detected in urine. In bile, TFA-IOP reached a maximum concentration of […] with the recovery of 40% of the injection dose during a 90 minute time period (see FIG. 6).

CCC(Cc1c(I)cc(I)c(NC(=O)C(F)(F)F)c1I)C(=O)O (centres unmarked) [TFA-IOP, N-trifluoroacetyl-iopanoic acid]
metabolism, TLC of bile: a vast majority of the injected TFA-IOP was metabolized to a single metabolite | nonmetabolized compound in bile (TLC): No nonmetabolized compound was found
